Laboratory results: patent US20210275514A1, “COMPOUNDS FOR USE IN TREATING KIDNEY DISORDERS” (Hoffmann-La Roche Inc., priority 2018, published 2021)
“Also recorded” adds a separate entry of the source.

What was measured:
Type in all cases: in vivo
129 Col4a3 KO mice [1] = assay: Alport mouse model, treatment from 4 weeks of age
Experimental: (§1) 129 Col4a3^tm1/Dec/J mice were purchased from Jackson Labs and bred to generate Col4a3 KO mice. Mice were genotyped and selected using the primers: F ([…]), R ([…]) and Rm ([…]) in a PCR reaction (94 C for 5 min, followed by 30 cycles of 30 sec at 95 C, 15 sec at 60 C and 30 sec 72 C, and 1 min at 72 C). 129 Col4A3-KO mice were divided into two groups of 5 mice (males and females) each. At the age of 4 weeks, mice started receiving either vehicle or Cpd G (100 mg/Kg) by oral gavage once daily for 4 weeks. Body weight measurements and spot urine collection was performed once a week. Animals were sacrificed at the end of the treatment at the age of 8 weeks. A late study was also performed to evaluate if treatment of Col4A3-KO mice at time of established disease would prolong mice survival. In this study, mice were treated with Cpd G (100 mg/Kg/day) by daily oral gavage starting at 6 weeks of age and survival was assessed.
(§2) Spot urine samples were collected for all mice at baseline and time of sacrifice. Urinary albumin and creatinine were determined using an albumin ELISA kit (Bethyl laboratories) and a colorimetric assay for creatinine determination (Stanbio). Albuminuria was calculated and expressed as μg of albumin divided by mg of creatinine. For diabetic mouse model, weight and glycaemia were measured on a bi-weekly basis.
Lipid droplet staining Filtered Oil-Red O-Isopropanol solution (Electron Microscopy Science, PA) was diluted with water (6:4). 4 μm kidney sections were incubated with 100 μl freshly prepared Oil-Red O solution (ORO) for 15 minutes and counterstained with Hematoxylin Harris Hg Free (VWR, PA) to detect lipid deposition. Glomeruli staining was evaluated using a light microscope (Olympus BX 41, Tokyo, Japan).
(§3) Renal lipids species assays. Kidney cortex sections were snap frozen and utilized for lipid extraction and cholesterol content determination. The tissue was homogenized in 2 mM potassium phosphate buffer in a glass douncer on ice. Lipids in 100 μl homogenate (˜5-10 mg tissue) were extracted with 1 ml hexane:isopropanol (3:2) for two sequential 30-minute extractions. The solvent containing lipids was then dried in Nitrogen atmosphere. Lipids were then reconstituted using isopropanol: NP-40 (9:1) and cholesterol content was quantified using the Amplex red cholesterol assay kit (Invitrogen) according to the manufacturers protocol. Triglycerides in lipid extracts were assayed with a colorimetric kit according to manufacturer's instructions (Cayman). Total cholesterol and cholesterol esters were assayed using an enzymatic fluorometric method. For total cholesterol renal lipid extracts were diluted in assay buffer (100 mM potassium phosphate, 50 mM NaCl, 5 mM cholic acid, 0.1% […], pH 7.4) and incubated with same buffer supplemented with a final concentration of 1 U/ml cholesterol oxidase, 1 U/ml cholesterol esterase, 1 U/ml horseradish peroxidase, and 75 μM Amplex Red. The reactions were incubated at 37° C. for 30 min in a black opaque 96 well plate (Greiner) and fluorescence was measured in a microplate reader (Spectramax i3X, Molecular Devices) using 530 nm excitation and 580 emission.
Cholesterol esters were assayed using a direct method described by Mizoguchi et al (Mizoguchi, 2004). Briefly 150 μl of FC decomposition reagent (45 U/ml bovine catalase and 1 U/ml cholesterol oxidase, in assay buffer described above) was added to 25 μl of sample containing up to 1 mM total cholesterol. Free cholesterol was allowed to decompose overnight at 37° C. and then 75 μl of 4× cholesterol ester detection reagent (1 U/ml cholesterol oxidase, 4 U/ml cholesterol esterase, 24 U/ml horseradish peroxidase, 300 μM Amplex Red) was added. Reaction was incubated at 37° C. for 30 min and fluorescence was measured as described above for total cholesterol. 1 mM of cholesterol and 5 μM of cholesterol oleate standards were included as internal controls to validate assay sensibility and specificity. […]

129 Col4a3 KO mice [2] = assay: Alport mouse model, late study of survival, treatment from 6 weeks of age; conditions: 100 mg/Kg/day oral gavage started in 6 weeks old mice
Experimental: as §1

db/db mice = assay: DKD mouse model; conditions: 30 mg/Kg once daily; for albuminuria (albumin to creatinine ratio): vs db/db vehicle
Experimental: B6.BKS^db/db and B6.BKS^db/+ mice were purchased from the Jackson laboratory. At the age of 14 weeks, mice started receiving vehicle or the ABCA1 inducer Cpd A (30 mg/Kg) by oral gavage once daily for 4 weeks. Body weight measurements and urine collection was performed every week. Mice were sacrificed at 18 weeks old, blood was collected and tissues were processed and analyzed as described below.
as §2
Kidney cortex sections were embedded in OCT for further analysis of immunofluorescent staining and lipid droplet. Specifically, for determination of podocyte number per glomerular cross-section was determined using 4 μm-thick tissue sections that were cut and stained with WT1 antibody (1:200, Santa Cruz) and prolong GOLD DAPI mounting media. Images were acquired with confocal microscopy using a Leica SP5 inverted microscope with the 40× wet objective. 20 glomeruli per mouse were quantified.
Electron microscopy. For transmission electron microscopy kidney cortex sections were placed in 4% paraformaldehyde, 1% gluteraldehyde in 0.1 M phosphate buffer (pH 7.4). Foot processes were quantified per 1 μm of the glomerular basement membrane.
as §3
Cholesterol esters were assayed using a direct method described by Mizoguchi et al (Mizoguchi, 2004). Briefly 150 μl of FC decomposition reagent (45 U/ml bovine catalase and 1 U/ml cholesterol oxidase, in assay buffer described above) was added to 25 μl of sample containing up to 1 mM total cholesterol. Free cholesterol was allowed to decompose overnight at 37° C. and then 75 μl of 4× cholesterol ester detection reagent (1 U/ml cholesterol oxidase, 4 U/ml cholesterol esterase, 24 U/ml horseradish peroxidase, 300 μM Amplex Red) was added. Reaction was incubated at 37° C. for 30 min and fluorescence was measured as described above for total cholesterol. 1 mM of cholesterol and 5 μM of cholesterol oleate standards were included as internal controls to validate assay sensibility and specificity.
Pathological evaluation. Kidney cortex sections were paraffin-embedded and cut at 4 μm thick for periodic acid-Schiff (PAS) and HE. […]

[3] = 100 mg/Kg once daily, 4 weeks from age 4 weeks, vs vehicle

Compound	progression to ESRD (129 Col4a3 KO mice [1]; 100 mg/Kg once daily, 4 weeks from age 4 weeks)	Albuminuria (129 Col4a3 KO mice [1]; [3])	BUN (129 Col4a3 KO mice [1]; [3])	Body weight loss (129 Col4a3 KO mice [1]; [3])	mesangial expansion (PAS-stained kidney sections) (129 Col4a3 KO mice [1]; [3])	serum creatinine (129 Col4a3 KO mice [1]; [3])	lipid accumulation in kidney cortex sections (Oil-red O staining) (129 Col4a3 KO mice [1]; 8 week old mice, 28 days treatment)	cholesterol ester in kidneys (129 Col4a3 KO mice [1]; 8 week old mice, 28 days treatment, normalized to total protein)	increased life span (129 Col4a3 KO mice [2])	Blood urea nitrogen (BUN) (db/db mice; 4 weeks)	cholesterol esters in kidney cortex (db/db mice; 4 weeks)	mesangial expansion (PAS stained sections) (db/db mice; 4 weeks)	podocyte foot process effacement (TEM) (db/db mice; 4 weeks)	podocyte number (WT1 positive cells) (db/db mice; 4 weeks)	albuminuria (albumin to creatinine ratio) (db/db mice; after four weeks of treatment (18 weeks))	albuminuria (albumin to creatinine ratio) (db/db mice; after two weeks of treatment (16 weeks))
O=C(N[C@@H]1CCCC[C@H]1O)c1cnc(OCC(F)(F)F)c(-c2ccc(Cl)c(Cl)c2)c1 [Cpd G, 5-(3,4-dichloro-phenyl)-N-((1R,2R)-2-hydroxy-cyclohexyl)-6-(2,2,2-trifluoro-ethoxy)-nicotinamide]	delays progression to end stage renal disease; also recorded: delayed progression to ESRD	significantly less	significantly less	lost less weight	significantly less mesangial expansion	significantly less	reduced	reduces esterified cholesterol accumulation; also recorded: significantly reduced	~15%							
O=C(N[C@@H]1CCCC[C@H]1O)c1ccc(OCC(F)(F)F)c(-c2ccc(Cl)c(Cl)c2)n1 [Cpd A, 6-(3,4-Dichlorophenyl)-N-[(1R,2R)-2-hydroxycyclohexyl]-5-(2,2,2-trifluoroethoxy)pyridine-2-carboxamide]										significantly improved	significant reduction	improved	improved	improved	even further reduction	reduction in albuminuria
